# Source: patent US11110303B2, “Hapten-enhanced chemoimmunotherapy by ultra-minimum incision personalized intratumoral chemoimmunotherapy” (priority 2014, dated 2021)
# Where two headings read alike, the source gives them in different places.
smiles,measurement,setting,value
"Nc1ccn([C@@H]2O[C@H](CO)[C@@H](O)[C@@H]2O)c(=O)n1 [Ara-C alone, Cytosine Arabinoside]",drug retention in tumor,12 hours after intratumoral injection,16%
same,retention rate of Ara-C in tumor,24 hours after intratumoral injection,0%
same,retention rate of Ara-C in tumor,fifteen minutes after intratumoral injection,100%
same,retention rate of Ara-C in tumor,four hours after intratumoral injection,16%
